6 molecules from PubChem BioAssay AID1259411 (Chemical Carcinogenesis Research Information System (CCRIS), 2018) can be followed below.

For this data set, the system named is rodent carcinogenicity bioassays, tumor incidence. As to the kind of experiment: CCRIS carcinogenicity studies. The essentials: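 NCI-built, expert-reviewed records of carcinogenicity and related test outcomes (mutagenicity, tumor promotion/inhibition) compiled from published and report sources, historical span 1985-2011, not updated.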

Calls of active or inactive are those of the source. The rule behind the calls is not given here.

`CC1(C)S[C@@H]2[C@H](NC(=O)[C@H](N)c3ccccc3)C(=O)N2[C@H]1C(=O)O`: the carcinogen call was “inactive; negative” (Species: MOUSE, Strain/Sex: B6C3F1/FEMALE, Route: GAVAGE, Dose: 0, 1500, 3000 MG/KG IN CORN OIL 5 D/WK FOR 103-104 WK (STUDY DURATION: 106 WK), Dose: 0, 1500, 3000 MG/KG IN CORN OIL 5 D/WK FOR 103-104 WK (STUDY DURATION: 106 WK)); “inactive; negative” (Species: MOUSE, Strain/Sex: B6C3F1/FEMALE, Route: GAVAGE, Dose: 0, 1500, 3000 MG/KG IN CORN OIL 5 D/WK FOR 103 WK, Dose: 0, 1500, 3000 MG/KG IN CORN OIL 5 D/WK FOR 103 WK); “inactive; negative” (Species: MOUSE, Strain/Sex: B6C3F1/MALE, Route: GAVAGE, Dose: 0, 1500, 3000 MG/KG IN CORN OIL 5 D/WK FOR 103-104 WK (STUDY DURATION: 106 WK), Dose: 0, 1500, 3000 MG/KG IN CORN OIL 5 D/WK FOR 103-104 WK (STUDY DURATION: 106 WK)); “inactive; negative” (Species: MOUSE, Strain/Sex: B6C3F1/MALE, Route: GAVAGE, Dose: 0, 1500, 3000 MG/KG IN CORN OIL 5 D/WK FOR 103 WK, Dose: 0, 1500, 3000 MG/KG IN CORN OIL 5 D/WK FOR 103 WK); “inactive; negative” (Species: RAT, Strain/Sex: F344/FEMALE, Route: GAVAGE, Dose: 0, 750, 1500 MG/KG IN CORN OIL 5 D/WK FOR 103-104 WK (STUDY DURATION: 106 WK), Dose: 0, 750, 1500 MG/KG IN CORN OIL 5 D/WK FOR 103-104 WK (STUDY DURATION: 106 WK)); “inactive; negative” (Species: RAT, Strain/Sex: F344/FEMALE, Route: GAVAGE, Dose: 0, 750, 1500 MG/KG IN CORN OIL 5 D/WK FOR 103 WK, Dose: 0, 750, 1500 MG/KG IN CORN OIL 5 D/WK FOR 103 WK). The carcinogen call (Species: RAT, Strain/Sex: F344/MALE, Route: GAVAGE, Dose: 0, 750, 1500 MG/KG IN CORN OIL 5 D/WK FOR 103 WK (STUDY DURATION: 105 WK), Dose: 0, 750, 1500 MG/KG IN CORN OIL 5 D/WK FOR 103 WK (STUDY DURATION: 105 WK), Tumor Site: Type of Lesion: ADRENAL MEDULLA: PHEOCHROMOCYTOMAS, HEMATOPOIETIC SYSTEM: MONONUCLEAR CELL LEUKEMIA) is listed as “equivocal”.

On to `CC1=C2C(=CO[C@H](C)[C@H]2C)C(=O)C(C(=O)O)=C1O`, for which the carcinogen call runs as follows: (Species: MOUSE, Strain/Sex: DDD/MALE, Route: ORAL, Dose: 0, 100, 200 PPM IN DIET FOR 70 WK (STUDY DURATION: 70 WK), Dose: 0, 100, 200 PPM IN DIET FOR 70 WK (STUDY DURATION: 70 WK)) “inactive; negative”; (Species: RAT, Route: DIET, Dose: 0, 0.1%, FOR 32 WK, Tumor Site: Type of Lesion: KIDNEY: ADENOMA, ADENOCARCINOMA) “active; positive”; (Species: RAT, Strain/Sex: F344/MALE, Route: ORAL, Dose: 0.1% IN DIET FOR 80 WK, Tumor Site: Type of Lesion: KIDNEY: CLEAR CELL ADENOMA) “active; positive”.

With `CC(=O)N(O)c1ccc(-c2ccccc2)cc1`, for the setting “Species: RAT, Strain/Sex: STRAIN-CD/FEMALE, Route: INTRAPERITONEAL, Dose: 0, 100 UMOL/KG BW 2/WK FOR 6 WK (STUDY DURATION: 62 WK)”, the carcinogen call is “inactive; negative”.

As for `COc1ccccc1O`, the carcinogen call (Species: RAT, Strain/Sex: SPRAGUE-DAWLEY/FEMALE, Route: GAVAGE, Dose: 0, 20, 50, 200 MG/KG/D IN 0.5% CARBOXYMETHYLCELLULOSE SUSPENSION FOR 103 WK (STUDY DURATION: 103 WK), Dose: 0, 20, 50, 200 MG/KG/D IN 0.5% CARBOXYMETHYLCELLULOSE SUSPENSION FOR 103 WK (STUDY DURATION: 103 WK)) is “inactive; negative” and the carcinogen call (Species: RAT, Strain/Sex: SPRAGUE-DAWLEY/MALE, Route: GAVAGE, Dose: 0, 20, 50, 200 MG/KG/D IN 0.5% CARBOXYMETHYLCELLULOSE SUSPENSION FOR 103 WK (STUDY DURATION: 103 WK), Dose: 0, 20, 50, 200 MG/KG/D IN 0.5% CARBOXYMETHYLCELLULOSE SUSPENSION FOR 103 WK (STUDY DURATION: 103 WK)) is “inactive; negative”.

Regarding `C[C@@H]1Cc2c(Cl)cc(C(=O)NC(Cc3ccccc3)C(=O)O)c(O)c2C(=O)O1` (some centres not stated), the carcinogen call (Species: MOUSE, Strain/Sex: ALBINO/MALE,FEMALE, Route: GAVAGE, Dose: 0, 0.25 ML OF 50 PPM SOLUTION 2/WK FOR 20 WK (STUDY DURATION: 20 WK), Tumor Site: Type of Lesion: KIDNEY: CARCINOMA) is “active; positive”; the carcinogen call (Species: MOUSE, Strain/Sex: CD-1/FEMALE, Route: ORAL, Dose: 0, 0.031, 0.125, 0.5% IN DIET FOR 78 WK (STUDY DURATION: 78 WK), Dose: 0, 0.031, 0.125, 0.5% IN DIET FOR 78 WK (STUDY DURATION: 78 WK)) was “inactive; negative”; the carcinogen call (Species: MOUSE, Strain/Sex: CD-1/MALE, Route: ORAL, Dose: 0, 0.031, 0.125, 0.5% IN DIET FOR 78 WK (STUDY DURATION: 78 WK), Dose: 0, 0.031, 0.125, 0.5% IN DIET FOR 78 WK (STUDY DURATION: 78 WK)) was “inactive; negative”; the carcinogen call (Species: MOUSE, Strain/Sex: DDD/MALE, Route: ORAL, Dose: 0, 25 PPM IN DIET FOR 70 WK (STUDY DURATION: 70 WK), Tumor Site: Type of Lesion: KIDNEY: RENAL CELL TUMOR, LIVER: HEPATOMA) was “active; positive”; the carcinogen call (Species: MOUSE, Strain/Sex: DDY/MALE, Route: ORAL, Dose: 0, 7.05, 17.24, 26.27, 33.16, 35.86, 42.67 MG/MOUSE (TOTAL DOSE) ADMINISTERED AT A DOSE OF 50 PPM IN DIET FOR 0, 5, 10,, Dose: 0, 7.05, 17.24, 26.27, 33.16, 35.86, 42.67 MG/MOUSE (TOTAL DOSE) ADMINISTERED AT A DOSE OF 50 PPM IN DIET FOR 0, 5, 10,, Tumor Site: Type of Lesion: LIVER: HEPATOMA, KIDNEY: RENAL CELL TUMOR) is “active; positive”; the carcinogen call (Species: MOUSE, Strain/Sex: SWISS/MALE,FEMALE, Route: GAVAGE, Dose: 0, 0.25 ML OF A 50 PPM SOLUTION 2/WK FOR 20 WK (STUDY DURATION: 20 WK), Tumor Site: Type of Lesion: KIDNEY: CARCINOMA) was “active; positive”. Further, the carcinogen call (Species: RAT, Strain/Sex: DA/FEMALE, Route: GAVAGE, Dose: 0, 0.4 MG/KG BW IN SODIUM BICARBONATE 3/WK FOR DURATION OF STUDY (STUDY DURATION: LIFESPAN)) is “inactive; negative”; the carcinogen call (Species: RAT, Strain/Sex: DA/MALE, Route: GAVAGE, Dose: 0, 0.4 MG/KG BW IN SODIUM BICARBONATE 3/WK FOR DURATION OF STUDY (STUDY DURATION: LIFESPAN), Tumor Site: Type of Lesion: KIDNEY: ADENOCARCINOMA, ADENOMA) is “active; positive”; the carcinogen call (Species: RAT, Strain/Sex: F344/FEMALE, Route: GAVAGE, Dose: 0, 21, 70, 210 UG/KG IN CORN OIL 5 D/WK FOR 103 WK (STUDY DURATION: 105 WK), Dose: 0, 21, 70, 210 UG/KG IN CORN OIL 5 D/WK FOR 103 WK (STUDY DURATION: 105 WK), Tumor Site: Type of Lesion: KIDNEY TUBULE: ADENOMA, CARCINOMA, MAMMARY GLAND: FIBROADENOMA, ADENOMA OR FIBROADENOMA OR ADENOCARCINOMA) was “active; positive”; the carcinogen call (Species: RAT, Strain/Sex: F344/MALE, Route: GAVAGE, Dose: 0, 21, 70, 210 UG/KG IN CORN OIL 5 D/WK FOR 103 WK (STUDY DURATION: 106 WK), Dose: 0, 21, 70, 210 UG/KG IN CORN OIL 5 D/WK FOR 103 WK (STUDY DURATION: 106 WK), Tumor Site: Type of Lesion: KIDNEY TUBULE: ADENOMA, CARCINOMA) was “active; positive”; the carcinogen call (Species: RAT, Strain/Sex: LEWIS/FEMALE, Route: GAVAGE, Dose: 0, 0.4 MG/KG BW IN SODIUM BICARBONATE 3/WK FOR DURATION OF STUDY (STUDY DURATION: LIFESPAN), Tumor Site: Type of Lesion: KIDNEY: ADENOCARCINOMA) is “active; positive”; the carcinogen call (Species: RAT, Strain/Sex: LEWIS/MALE, Route: GAVAGE, Dose: 0, 0.4 MG/KG BW IN SODIUM BICARBONATE 3/WK FOR DURATION OF STUDY (STUDY DURATION: LIFESPAN), Tumor Site: Type of Lesion: KIDNEY: ADENOCARCINOMA) was “active; positive”.

In the case of `Cc1ccc(N(CC2=NCCN2)c2cccc(O)c2)cc1`, the carcinogen call reads like this: (Species: RAT, Strain/Sex: CRL:CD BR/MALE, FEMALE (65/GROUP), Route: ORAL (GAVAGE), Dose: 10, 50, 150 MG/KG DAILY IN DISTILLED WATER (STUDY DURATION: 101 WK), Dose: 10, 50, 150 MG/KG DAILY IN DISTILLED WATER (STUDY DURATION: 101 WK), Tumor Site: Type of Lesion: BROWN ADIPOSE TISSUE: HIBERNOMA) “active; positive”; (Species: RAT, Strain/Sex: CRL:CD BR/MALE, FEMALE (65/GROUP), Route: ORAL (GAVAGE), Dose: 10, 50, 150 MG/KG DAILY IN DISTILLED WATER (STUDY DURATION: 101 WK), Dose: 10, 50, 150 MG/KG DAILY IN DISTILLED WATER (STUDY DURATION: 101 WK), Tumor Site: Type of Lesion: PITUITARY: ADENOMA) “active; positive”.
